Starred links: 1 amine or outer side, 2 acyl side, 3 side chain; linkers in the order of their positions; H or OH if unused. Positions of bridges follow the written chain, without caps; N, C: chain ends. Non-standard residues stand in square brackets, D forms with d. Residues, ends and D or L forms follow the SMILES beside them. X38 = O=C(O)C1CCC(C(=O)Nc2ccc(-c3ccc(C[C@H](N[*:1])C(=O)[*:2])cc3)cc2)CC1; Bip(4'-NHBz) = N[C@@H](Cc1ccc(-c2ccc(NC(=O)c3ccccc3)cc2)cc1)C(=O)O; Bip(4'-COOH) = N[C@@H](Cc1ccc(-c2ccc(C(=O)O)cc2)cc1)C(=O)O; Bip(4'-NHAc) = CC(=O)Nc1ccc(-c2ccc(C[C@H](N)C(=O)O)cc2)cc1; Ala(morpholin-4-yl) = N[C@@H](CN1CCOCC1)C(=O)O; Phe(3-CONH2) = NC(=O)c1cccc(C[C@H](N)C(=O)O)c1; Bip = N[C@@H](Cc1ccc(-c2ccccc2)cc1)C(=O)O; Cya = N[C@@H](CS(=O)(=O)O)C(=O)O; 2Thi = N[C@@H](Cc1cccs1)C(=O)O; Cha = N[C@@H](CC1CCCCC1)C(=O)O; Chg = N[C@H](C(=O)O)C1CCCCC1; Sar = CNCC(=O)O
Biological target: TNFα (Homo sapiens, UniProt P01375)
Assay: TNF-Induced HEK-Blue Assay
Assay type: cell-based
Settings: not given

TNFα, sequence (P01375 77-233 limits assumed): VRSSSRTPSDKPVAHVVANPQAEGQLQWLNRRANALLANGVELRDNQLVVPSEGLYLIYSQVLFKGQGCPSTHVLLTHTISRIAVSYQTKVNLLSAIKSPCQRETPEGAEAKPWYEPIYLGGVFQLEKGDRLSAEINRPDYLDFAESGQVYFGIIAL

Structure (SMILES)	IC50 [nM]
CC[C@H](C)[C@@H]1NC(=O)[C@@H](CCCNC(=N)N)NC(=O)[C@H](CC(=O)O)NC(=O)[C@H](Cc2cnc[nH]2)NC(=O)CN(C)C(=O)[C@H](Cc2ccc(-c3ccc(NC(=O)c4ccccc4)cc3)cc2)NC(=O)[C@H](Cc2ccc(-c3ccccc3)cc2)NC(=O)[C@H](CC2CCCCC2)NC(=O)CSC[C@@H](C(=O)NCC(N)=O)NC(=O)[C@H](CC(C)C)NC(=O)[C@H](Cc2cnc[nH]2)NC(=O)[C@H](C(C)C)NC(=O)[C@@H]2CCCN2C1=O [Example 315] ({CH2CO}-[Cha][Bip][Bip(4'-NHBz)][Sar]HD[dR]IPVHLCG-NH2; thioether N-13)	< 50

Same assay, conditions: HEK-Blue-CD40L cells, NF-kB-driven secreted alkaline phosphatase reporter; TNFα 0.5 ng/ml; 18 h; read-out: TNF induced HEK-Blue assay IC50 value

IC50 [nM]	Structure (SMILES)
50 to 200	CC(=O)Nc1ccc(-c2ccc(C[C@@H]3NC(=O)[C@H](Cc4ccc(-c5ccccc5)cc4)NC(=O)[C@H](CC4CCCCC4)NC(=O)CSC[C@@H](C(=O)NCC(N)=O)NC(=O)[C@H](CC(C)C)NC(=O)[C@H](Cc4ccc(O)cc4)NC(=O)[C@H](C(C)C)NC(=O)[C@@H]4CCCN4C(=O)[C@H](C(C)C)NC(=O)[C@@H](CCCNC(=N)N)NC(=O)[C@H](CS(=O)(=O)O)NC(=O)[C@@H]4CCCN4C(=O)CN(C)C3=O)cc2)cc1 [Example 309] ({CH2CO}-[Cha][Bip][Bip(4'-NHAc)][Sar]P[Cya][dR]VPVYLCG-NH2; thioether N-13)
50 to 200	CC(=O)Nc1ccc(-c2ccc(C[C@@H]3NC(=O)[C@H](Cc4ccc(-c5ccccc5)cc4)NC(=O)[C@H](CC4CCCCC4)NC(=O)CSC[C@@H](C(=O)NCC(N)=O)NC(=O)[C@H](CC(C)C)NC(=O)[C@H](Cc4ccc(O)cc4)NC(=O)[C@H](C4CCCCC4)NC(=O)[C@@H]4CCCN4C(=O)[C@H](C(C)C)NC(=O)[C@@H](CCCNC(=N)N)NC(=O)[C@H](CC(=O)O)NC(=O)[C@@H]4CCCN4C(=O)CN(C)C3=O)cc2)cc1 [Example 310] ({CH2CO}-[Cha][Bip][Bip(4'-NHAc)][Sar]PD[dR]VP[Chg]YLCG-NH2; thioether N-13)
50 to 200	CC(=O)Nc1ccc(-c2ccc(C[C@@H]3NC(=O)[C@H](Cc4ccc(-c5ccccc5)cc4)NC(=O)[C@H](CN4CCOCC4)NC(=O)CSC[C@@H](C(=O)NCC(N)=O)NC(=O)[C@H](CC(C)C)NC(=O)[C@H](Cc4cccc(C(N)=O)c4)NC(=O)[C@H](C(C)C)NC(=O)[C@@H]4CCCN4C(=O)[C@H](C(C)C)NC(=O)[C@@H](CCCNC(=N)N)NC(=O)[C@H](CC(=O)O)NC(=O)[C@@H]4CCCN4C(=O)CN(C)C3=O)cc2)cc1 [Example 311] ({CH2CO}-[Ala(morpholin-4-yl)][Bip][Bip(4'-NHAc)][Sar]PD[dR]VPV[Phe(3-CONH2)]LCG-NH2; thioether N-13)
200 to 2000	CC(=O)Nc1ccc(-c2ccc(C[C@@H]3NC(=O)[C@H](Cc4ccc(-c5ccccc5)cc4)NC(=O)[C@H](CN4CCOCC4)NC(=O)CSC[C@@H](C(=O)NCC(N)=O)NC(=O)[C@H](CC(C)C)NC(=O)[C@H](Cc4cccc(C(N)=O)c4)NC(=O)[C@H](C4CCCCC4)NC(=O)[C@@H]4CCCN4C(=O)[C@H](C(C)C)NC(=O)[C@@H](CCCNC(=N)N)NC(=O)[C@H](CC(=O)O)NC(=O)[C@@H]4CCCN4C(=O)CN(C)C3=O)cc2)cc1 [Example 312] ({CH2CO}-[Ala(morpholin-4-yl)][Bip][Bip(4'-NHAc)][Sar]PD[dR]VP[Chg][Phe(3-CONH2)]LCG-NH2; thioether N-13)
200 to 2000	CC(=O)Nc1ccc(-c2ccc(C[C@@H]3NC(=O)[C@H](Cc4ccc(-c5ccc(C(=O)O)cc5)cc4)NC(=O)[C@H](CN4CCOCC4)NC(=O)CSC[C@@H](C(=O)NCC(N)=O)NC(=O)[C@H](CC(C)C)NC(=O)[C@H](Cc4cccc(C(N)=O)c4)NC(=O)[C@H](C(C)C)NC(=O)[C@@H]4CCCN4C(=O)[C@H](C(C)C)NC(=O)[C@@H](CCCNC(=N)N)NC(=O)[C@H](CC(=O)O)NC(=O)[C@@H]4CCCN4C(=O)CN(C)C3=O)cc2)cc1 [Example 313] ({CH2CO}-[Ala(morpholin-4-yl)][Bip(4'-COOH)][Bip(4'-NHAc)][Sar]PD[dR]VPV[Phe(3-CONH2)]LCG-NH2; thioether N-13)
200 to 2000	CC(=O)Nc1ccc(-c2ccc(C[C@@H]3NC(=O)[C@H](Cc4ccc(-c5ccc(C(=O)O)cc5)cc4)NC(=O)[C@H](CN4CCOCC4)NC(=O)CSC[C@@H](C(=O)NCC(N)=O)NC(=O)[C@H](CC(C)C)NC(=O)[C@H](Cc4cccs4)NC(=O)[C@H](C4CCCCC4)NC(=O)[C@@H]4CCCN4C(=O)[C@H](C(C)C)NC(=O)[C@@H](CCCNC(=N)N)NC(=O)[C@H](CC(=O)O)NC(=O)[C@@H]4CCCN4C(=O)CN(C)C3=O)cc2)cc1 [Example 314] ({CH2CO}-[Ala(morpholin-4-yl)][Bip(4'-COOH)][Bip(4'-NHAc)][Sar]PD[dR]VP[Chg][2Thi]LCG-NH2; thioether N-13)
50 to 200	CC[C@H](C)[C@@H]1NC(=O)[C@@H](CCCNC(=N)N)NC(=O)[C@H](CC(=O)O)NC(=O)[C@H](Cc2cnc[nH]2)NC(=O)CN(C)C(=O)[C@H](Cc2ccc(-c3ccc(NC(=O)C4CCC(C(=O)O)CC4)cc3)cc2)NC(=O)[C@H](Cc2ccc(-c3ccccc3)cc2)NC(=O)[C@H](CC2CCCCC2)NC(=O)CSC[C@@H](C(=O)NCC(N)=O)NC(=O)[C@H](CC(C)C)NC(=O)[C@H](Cc2cnc[nH]2)NC(=O)[C@H](C(C)C)NC(=O)[C@@H]2CCCN2C1=O (some centres unmarked) [Example 316] ({CH2CO}-[Cha][Bip][X38][Sar]HD[dR]IPVHLCG-NH2; thioether N-13)

Reference: patent publication US20250145665A1, “MACROCYCLIC PEPTIDES USEFUL AS MODULATORS OF TNF ALPHA” (Bristol-Myers Squibb Company, priority 2023, published 2025)
